The structures appear in SMILES notation.

Experimental findings from US5268374A, “Non-peptide renin inhibitors” (Abbott Laboratories, priority 1991, dated 1993) are described below.

For the first test, the target named is T1, human renal renin (Homo sapiens, UniProt P00797).
T1 construct: from tissue; host or cells: human kidney (read from the word 'renal'; no preparation is printed)
T1 sequence (P00797 67-406): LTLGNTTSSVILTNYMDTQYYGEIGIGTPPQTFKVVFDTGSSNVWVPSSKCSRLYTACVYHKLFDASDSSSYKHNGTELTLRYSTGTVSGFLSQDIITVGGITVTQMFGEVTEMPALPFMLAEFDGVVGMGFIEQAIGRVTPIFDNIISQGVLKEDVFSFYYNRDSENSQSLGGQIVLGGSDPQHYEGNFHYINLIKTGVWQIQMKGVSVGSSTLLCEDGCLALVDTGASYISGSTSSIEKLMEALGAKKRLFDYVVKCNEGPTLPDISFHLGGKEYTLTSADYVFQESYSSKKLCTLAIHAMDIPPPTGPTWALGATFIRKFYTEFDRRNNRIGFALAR
In words: Inhibition of human renal renin in vitro (angiotensin I formation by radioimmunoassay). In kind it is biochemical.
Conditions: not given
As usually defined, the IC50 is the midpoint of a concentration-inhibition curve. `CCCC[C@H](N[C@@H](Cc1ccccc1)C(=O)N1CCC(OCOC)CC1)C(=O)N[C@@H](CC1CCCCC1)[C@@H](O)C[C@H](C(=O)NCCCn1ccnc1)C(C)C` [Example 119] showed an IC50 of 3 nM.

Staying with this test, now noted: human renal renin, 37 degrees C, pH 6.0; read-out: IC50.
Turning to `CCCC[C@H](N[C@@H](Cc1ccccc1)C(=O)N1CCOCC1)C(=O)N[C@@H](CC1CCCCC1)[C@@H](O)[C@@H](O)CC(C)C` [Example 69, N-(1(S)-(4-Morpholinylcarbonyl)-2-phenylethyl)-L-norleucyl Amide of 2(S)-Amino-1-cyclohexyl-3(R),4(S)-dihydroxy-6-methylheptane], the IC50 was found to be 9 nM. Same read-out and setting: for `CC(C)C[C@H](O)[C@H](O)[C@H](CC1CCCCC1)NC(=O)[C@H](C)O[C@@H](Cc1ccccc1)C(=O)N1CCC1` [Example 87, 2(S)-(1(S)-(N-Azetidinylcarbonyl)-2-phenylethoxy)propionic acid Amide of 2(S)-Amino-1-cyclohexyl-3(R),4(S)-dihydroxy-6-methylheptane] the value was 5.5 nM; for `CC(C)C[C@H](O)[C@H](O)[C@H](CC1CCCCC1)NC(=O)[C@H](C)O[C@@H](Cc1ccccc1)C(=O)N1CCCC1` [Example 88, 2(S)-(1(S)-(N-Pyrolidinylcarbonyl)-2-phenylethoxy)propionic acid Amide of 2(S)-Amino-1-cyclohexyl-3(R),4(S)-dihydroxy-6-methylheptane], 12 nM; for `CC(C)C[C@H](O)[C@H](O)[C@H](CC1CCCCC1)NC(=O)[C@H](C)O[C@@H](Cc1ccccc1)C(=O)N1CCCCC1` [Example 89, 2(S)-(1(S)-(N-Piperidinylcarbonyl)-2-phenylethoxy)propionic acid Amide of 2(S)-Amino-1-cyclohexyl-3(R),4(S)-dihydroxy-6-methylheptane], 15 nM. On the same count and under the same terms, for `CCCCNC(=O)[C@@H](C[C@H](O)[C@H](CC1CCCCC1)NC(=O)[C@H](C)O[C@@H](Cc1ccccc1)C(=O)N1CCOCC1)C(C)C` [Example 91, 2(S)-(1(S)-(4-Morpholinylcarbonyl)-2-phenylethoxy)propionic acid Amide of 2(S)-Amino-1-cyclohexyl-3(S)-hydroxy-5(S)-n-butylcarbamoyl-6-methylheptane] the value was 3.9 nM. Still for that read-out and setting: for `CCCC[C@H](O[C@@H](Cc1ccccc1)C(=O)N1CCC(OCOC)CC1)C(=O)N[C@@H](CC1CCCCC1)[C@@H](O)[C@@H](O)CC(C)C` [Example 93, 2(S)-(1(S)-(4-(Methoxymethoxy)piperidin-1-yl-carbonyl)-2-phenylethoxy)hexanoic acid Amide of 2(S)-Amino-1-cyclohexyl-3(R),4(S)-dihydroxy-6-methylheptane] the value was 1.1 nM; for `COCOC1CCN(C(=O)[C@H](Cc2ccccc2)O[C@@H](C)C(=O)N[C@@H](CC2CCCCC2)[C@@H](O)[C@@H](O)CC(C)C)CC1` [Example 94, 2(S)-(1(S)-(4-(Methoxymethoxy)piperidinyl-1-yl-carbonyl)-2-phenylethoxy)propionic acid Amide of 2(S)-Amino-1-cyclohexyl-3(R),4(S)-dihydroxy-6-methylheptane], 1.3 nM; for `CCCCNC(=O)[C@@H](C[C@H](O)[C@H](CC1CCCCC1)NC(=O)[C@H](CCCC)O[C@@H](Cc1ccccc1)C(=O)N1CCC(OCOC)CC1)C(C)C` [Example 96, 2(S)-(1(S)-(4-(Methoxymethoxy)piperidin-1-yl-carbonyl)-2-phenylethoxy)hexanoic acid Amide of 2(S)-Amino-1-cyclohexyl-3(S)-hydroxy-5(S)-n-butylcarbamoyl-6-methylheptane], 1.5 nM.

In the case of `CCCC[C@H](O[C@@H](Cc1ccccc1)C(=O)N1CCC(OCOC)CC1)C(=O)N[C@@H](CC1CCCCC1)[C@@H](O)[C@@H]1CN(CC)C(=O)O1` [Example 108, 2(S)-(1(S)-(4-(Methoxymethoxy)piperidin-1-yl-carbonyl)-2-phenylethoxy)hexanoic acid Amide of (2's,1'R,5S)-3-Ethyl-5-(1'-hydroxy-2'-amino-3'-cyclohexylpropyl)oxazolidin-2-one], the IC50 was determined as 0.87 nM. As for `CCCC[C@H](O[C@@H](Cc1ccccc1)C(=O)N1CCC(OCOC)CC1)C(=O)N[C@@H](CC1CCCCC1)[C@@H](O)C[C@H](C(=O)NCCCn1ccnc1)C(C)C` [Example 116, 2(S)-(1(S)-(4-(Methoxymethoxy)piperidin-1-yl)carbonyl-2-phenyl)ethoxyhexanoic acid amide of 3-(1-imidazolyl)propyl 5(S)-amino-6-cyclohexyl-4(S)-hydroxy-2(S)-isopropylhexanamide], the IC50 stood at 1.3 nM. The same measure, in the same setting: for `CCCC[C@H](O[C@@H](Cc1ccccc1)C(=O)N1CCC(OCOC)CC1)C(=O)N[C@@H](CC1CCCCC1)[C@@H](O)C[C@H](C(=O)NCCCN(C)C)C(C)C` [Example 117, 2(S)-(1(S)-(4-(Methoxymethoxy)piperidin-1-yl)carbonyl-2-phenyl)ethoxyhexanoic acid amide of 3-(dimethylamino)propyl 5(S)-amino-6-cyclohexyl-4(S)-hydroxy-2(S)-isopropylhexanamide] the value was 2.5 nM.

On to `CCCC[C@H](O[C@@H](Cc1ccccc1)C(=O)N1CCC(OCOC)CC1)C(=O)N[C@@H](CC1CCCCC1)[C@@H](O)CN(C)S(=O)(=O)NC` [Example 122, 2(S)-(1(S)-(4-(Methoxymethoxy)piperidin-1-yl)carbonyl-2-phenyl)ethoxyhexanoic acid amide of (2S,3S)-3-amino-4-cyclohexyl-2-hydroxy-1-(methyl(methylsulfamoyl)amino)butane], for which the IC50 stood at 2.5 nM. On the same count and under the same terms, the result for `CCCC[C@H](O[C@@H](Cc1ccccc1)C(=O)N1CCC(OCOC)CC1)C(=O)N[C@@H](CC1CCCCC1)[C@@H](O)C[C@H](NC(=O)OCCN(C)C)C(C)C` [Example 129] reads 2.7 nM. On the same count and under the same terms, for `CCCC[C@H](O[C@@H](Cc1ccccc1)C(=O)N1CCC(OCOC)CC1)C(=O)N[C@@H](CC1CCCCC1)[C@@H](O)C[C@H](NC(=O)OCCN1CCOCC1)C(C)C` [Example 130] the value was 1.4 nM; for `CCCC[C@H](O[C@@H](Cc1ccccc1)C(=O)N1CCC(OCOC)CC1)C(=O)N[C@@H](CC1CCCCC1)[C@@H](O)C[C@H](NC(=O)OCCc1ccccn1)C(C)C` [Example 131], 0.88 nM; for `CCCCC(=O)N[C@@H](C[C@H](O)[C@H](CC1CCCCC1)NC(=O)[C@H](CCCC)O[C@@H](Cc1ccccc1)C(=O)N1CCC(OCOC)CC1)C(C)C` [Example 132, 2(S)-1(S)-4-(Methoxymethoxy)piperidin-1-yl)carbonyl-2-phenyl)ethoxyhexanoicacid amide of 2(S)-amino-1-cyclohexyl-5(S)-((2-(pentanoyl)amino-3(S)-hydroxy-6-methylheptane], 3.2 nM.

Take `CCCC[C@H](O[C@@H](Cc1ccccc1)C(=O)N1CCC(OCOC)CC1)C(=O)N[C@@H](CC1CCCCC1)[C@@H](O)C[C@H](C(=O)NCCC[N+](C)(C)[O-])C(C)C` [Example 136]: the half-inhibitory concentration (IC50) was found to be 1.4 nM.

In the case of `CCCC[C@H](O[C@@H](Cc1ccccc1)C(=O)N1CCC(OCOC)CC1)C(=O)N[C@@H](CC1CCCCC1)[C@@H](O)[C@@H](O)CN(C)OC` [Example 139], the 50% inhibitory concentration (IC50) stood at 2.7 nM. Consider `CCCC[C@H](O[C@@H](Cc1ccccc1)C(=O)N1CCC(OCOC)CC1)C(=O)N[C@@H](CC1CCCCC1)[C@@H](O)CN(C(C)C)S(=O)(=O)NC` [Example 142, 2(S)-(1(S)-(4-(Methoxymethoxy)piperidin-1-yl)carbonyl-2-phenyl)ethoxyhexanoic acid amide of (2S,3S)-3-amino-4-cyclohexyl-2-hydroxy-1-(isopropyl(methylsulfamoyl)amino)butane], for which the IC50 stood at 1.3 nM. The same measure, in the same setting: for `CCCC[C@H](O[C@@H](Cc1ccccc1)C(=O)N1CCC(OCOC)CC1)C(=O)N[C@@H](CC1CCCCC1)[C@@H](O)C(F)(F)[C@H](O)C(C)C` [Example 179] the value was 4.6 nM; for `CCCC[C@H](O[C@@H](Cc1ccccc1)C(=O)N1CCC(OCOC)CC1)C(=O)N[C@@H](CC(C)C)[C@@H](O)CC(=O)NCC(C)CC` (some centres unmarked) [Example 180], 3.8 nM. As for `CCCC[C@H](N[C@@H](Cc1ccccc1)C(=O)N1CCC(OCOC)CC1)C(=O)N[C@@H](CC1CCCCC1)[C@H](O)CC(C(=O)N[C@H](C(=O)NCc1ccccn1)[C@@H](C)CC)C(C)C` (some centres unmarked) [Example 181], the 50% inhibitory concentration (IC50) amounted to 1.8 nM.
